This note sets out measurements from US20160187320A1, “ASSAY FOR SCREENING COMPOUNDS THAT SELECTIVELY DECREASE THE NUMBER OF CANCER STEM CELLS” (THE ROGOSIN INSTITUTE, priority 2011, published 2016).

Test [1] relates to Docetaxel resistant (DR) cells (DU145-DR, 22RV1-DR). The test is described as follows: Cross-resistance of Docetaxel resistant (DR) cells. Format: cell-based, human. The settings on record: data not shown.
Test [2] has as its system 22RV1 and DU145 parental (sensitive) cells. As to the kind of experiment: Colony formation assay, Docetaxel sensitive parental cells. Format: cell-based, human. The settings on record: continuous Docetaxel for 21 days (25 nM in 22RV1, 5 nM in DU145). The protocol: (§1) Cell viability was analyzed using the Cell titer 96 Aquos Non-Reactive Cell Proliferation Assay (MTS) kit (Promega Corp., Madison, Wis.). Cells were seeded at a density of 10^4 in 96-well culture dishes and 24 hours later medium was removed and replaced with new medium alone (control) or medium containing drugs. After 72 hours, color absorbance was measured on a microplate spectrophotometer (Molecular Dynamics) at 450 nm (test wavelength) and 620 nm (reference wavelength). The percentage of surviving cells was estimated by dividing the A 450 nm-A 620 nm of treated cells by the A 450 nm-A 620 nm of control cells. Clonogenic survival assays in response to drug treatment were performed by plating 10^3 cells in 35 mm culture dishes. After 24 hours, cells were left untreated (control) or treated with drugs. Next day, medium was changed and the cells kept growing in fresh medium without any drug or under continuous exposure to drugs. For these continuous exposure experiments, medium plus drugs were replaced every 3 days until clones of drug-resistant cells appeared. Cells were then fixed with 4% paraformaldehyde in PBS, stained with crystal violet solution and formed colonies were visually counted.

For test [3], the system named is DU145 cells. As to the kind of experiment: Cell viability assay (MTS), parental DU145. Format: cell-based. The settings on record: Homo sapiens, DU-145; parental DU145, 72 hours; read-out: Docetaxel IC50. The protocol:
(§2) Human hormone-independent prostate cancer cell lines, DU-145 and 22RV1, were obtained from American Type Culture Collection (ATCC) and maintained in RPMI 1640 medium (Gibco, Invitrogen Corp., Carlsbad, Calif.) supplemented with 10% FBS without antibiotics. Cells were grown at 37° C. in a humidified atmosphere with 5% CO2. DU145 and 22RV1 cells were selected in order to generate a prostate cancer Docetaxel resistance model. […] Thus, the generation of acquired Docetaxel resistance in these two phenotypically distinct cell lines facilitated an approach to study the molecular processes involved in the acquisition of Docetaxel resistance. Docetaxel resistant clones, DU-145-DR and 22RV1-DR, were selected by culturing cells with Docetaxel in a dose-escalation manner. Initial culture was at 5 nM Docetaxel. […]
(§3) Cell viability was analyzed using the Cell titer 96 Aquos Non-Reactive Cell Proliferation Assay (MTS) kit (Promega Corp., Madison, Wis.). […] After 72 hours, color absorbance was measured on a microplate spectrophotometer (Molecular Dynamics) at 450 nm (test wavelength) and 620 nm (reference wavelength). […] Cells were then fixed with 4% paraformaldehyde in PBS, stained with crystal violet solution and formed colonies were visually counted.

In test [4] the test system is 22RV1-DR cells. The test is described as follows: Cell viability assay (MTS), Docetaxel resistant 22RV1-DR. Format: cell-based, human. The settings on record: for IC50: Homo sapiens. Here is the method:
as §2, with “Docetaxel. After the sensitive clones were no longer present and the surviving DU-145 and 22RV1 cells repopulated the flask, the concentration of Docetaxel was increased to 10 nM and subsequently to 25 nM, 50 nM, 100 nM and 250 nM. 22RV1-DR cells were further exposed to 500 nM Docetaxel. After exposure to each increasing dose of Docetaxel, the remaining surviving cells were maintained in culture medium containing the last selection escalating dose of Docetaxel. The last drug selection concentration at which the cells were exposed was 250 nM for DU-145-DR and 500 nM for 22RV1-DR, in order to avoid reversibility of the acquired Docetaxel resistance phenotype. The process of acquired drug resistance took 9 months for DU-145-DR and 6.5 months for 22RV1-DR.” for “Docetaxel.”
as §3

Test [5] concerns DU145-CK19 promoter-GFP stable cells sorted by GFP/HLA class I. As to the kind of experiment: Colony formation assay of GFP/HLA class I sorted cells under Docetaxel. Format: cell-based, human. The settings on record: Docetaxel 10 nM continuously. The protocol: as §1
Test [6] relates to 22RV1-DR and DU145-DR (resistant) cells. As to the kind of experiment: Colony formation assay, Docetaxel resistant cells. In kind it is cell-based, human. The settings on record: continuous Docetaxel for 21 days. The protocol: as §1
Test [7] concerns 22RV1 cells. The test is described as follows: Cell viability assay (MTS), parental 22RV1. Format: cell-based. The settings on record: Homo sapiens; parental 22RV1, 72 hours; read-out: Docetaxel IC50. The protocol:
as §2, §3

The subject of test [8] is DU145-DR cells. The test is described as follows: Cell viability assay (MTS), Docetaxel resistant DU145-DR. In kind it is cell-based, human. The settings on record: for IC50: Homo sapiens. Here is the method:
as §2, with “Docetaxel. After the sensitive clones were no longer present and the surviving DU-145 and 22RV1 cells repopulated the flask, the concentration of Docetaxel was increased to 10 nM and subsequently to 25 nM, 50 nM, 100 nM and 250 nM. 22RV1-DR cells were further exposed to 500 nM Docetaxel. After exposure to each increasing dose of Docetaxel, the remaining surviving cells were maintained in culture medium containing the last selection escalating dose of Docetaxel. The last drug selection concentration at which the cells were exposed was 250 nM for DU-145-DR and 500 nM for 22RV1-DR, in order to avoid reversibility of the acquired Docetaxel resistance phenotype. The process of acquired drug resistance took 9 months for DU-145-DR and 6.5 months for 22RV1-DR.” for “Docetaxel.”
as §3

Test [9] has as its system DU145-CK19 promoter-GFP stable cells. As to the kind of experiment: Flow cytometry of GFP populations surviving Docetaxel. Format: cell-based, human. The settings on record: Docetaxel 10 nM, 48 hours. From the text:
CK19 gene promoter region was amplified from DU145 cells genomic DNA by PCR with specific primer sets (Fw 5′-[…]-3′ (SEQ ID NO: 1) and Rv 5′-[…]-3′ (SEQ ID NO: 2)) as described previously (Tripathi et al., 2005. The PCR products were digested with Ase I and Hind III and cloned into pEGFPN1 vector (Clontech, Mountain View, Calif.) previously digested with the same enzymes. As a result, the CMV promoter was removed from the original vector and the GFP expression was under control of the CK19 promoter. The final construct was confirmed by digestion and sequencing analysis. DU145 cells were transfected with pCK19-GFP construct using Lipofectamine Plus 2000 (Invitrogen). After 24 hours, medium was replaced with fresh medium and stably expressing cells selected in the presence of G418 (Invitrogen). Positive clones were confirmed by direct microscopy and immunofluorescence and also by PCR amplification of GFP coding region using specific primers (Fw 5′-[…]-3′ (SEQ ID NO: 3) and Rv 5′-[…]-3′ (SEQ ID NO: 4)).
Flow cytometry analysis of subpopulations of prostate cancer cells were carried out following standard procedures. Intracellular CK19 and CK18 expression was performed in single-cell suspensions fixed with 70% ethanol, whereas the expression of cell surface HLA class I and GFP was determined in fresh cell samples (without fixation). […] A minimum of 10^4 cells were measured per sample.

Take `CCC1=C[C@@H]2CN(C1)Cc1c([nH]c3ccccc13)[C@@](C(=O)OC)(c1cc3c(cc1OC)N(C)[C@H]1[C@@](O)(C(=O)OC)[C@H](OC(C)=O)[C@]4(CC)C=CCN5CC[C@]31[C@@H]54)C2` [Vinorelbine]: the “cross-resistance of Docetaxel resistant cells” value in test [1] is given as “cross-resistance”.

Consider `O=C1c2c(O)ccc(O)c2C(=O)c2c(NCCNCCO)ccc(NCCNCCO)c21` [Mitoxantrone], for which the “cross-resistance of Docetaxel resistant cells” value in test [1] is “cross-resistance”.

Take `N.N.[Cl][Pt][Cl]` [Cisplatin]: in [1], the “cross-resistance of Docetaxel resistant cells” value was “cross-resistance”.

Turning to `CC(=O)O[C@@]12CO[C@@H]1C[C@H](O)[C@@]1(C)C(=O)[C@H](O)C3=C(C)[C@@H](OC(=O)[C@H](O)[C@@H](NC(=O)OC(C)(C)C)c4ccccc4)C[C@@](O)([C@@H](OC(=O)c4ccccc4)[C@H]21)C3(C)C` [Docetaxel], the colony formation result was “No colonies were observed” in test [2] and “colonies were observed” in test [6]. The 50% inhibitory concentration (IC50) (in general, the concentration that inhibits the measured activity by half) in [3] amounted to 0.005 µM; in [4] (22RV1-DR acquired resistant cells, 72 hours), 10 µM; in test [4] (22RV1-DR after 12 weeks of drug withdrawal), 0.05 µM; in test [7] it was 0.025 µM; in test [8] (DU145-DR acquired resistant cells, 72 hours), 1 µM; in test [8] (DU145-DR after 12 weeks of drug withdrawal), 0.025 µM. Further, the “fold increase of Docetaxel IC50” value in test [4] (22RV1-DR versus 22RV1) is reported as 400 fold; in test [8] (DU145-DR versus DU145), 200 fold. Moreover, the “clone formation under continuous exposure” value in [5] is reported as “only tumour cells with a GFP-negative/HLA class I-negative phenotype were able to form clones”. Also, the “GFP-negative phenotype, % of the total population after treatment” value in test [9] (initially 6.4±4.3%) was determined as 73.1±10.2%. Besides, the “GFP-positive phenotype, % of the total cell population after treatment” value in [9] (initially 87.5±10.4%) is on record as 28.3±10.6%.

Regarding `COc1cccc2c1C(=O)c1c(O)c3c(c(O)c1C2=O)C[C@@](O)(C(=O)CO)C[C@@H]3O[C@H]1C[C@H](N)[C@H](O)[C@H](C)O1` [Doxorubicin], the “cross-resistance of Docetaxel resistant cells” value in test [1] is “cross-resistance”.

Take `CC(=O)O[C@H]1C(=O)[C@@]2(C)[C@H]([C@H](OC(=O)c3ccccc3)[C@]3(O)C[C@H](OC(=O)[C@H](O)[C@@H](NC(=O)c4ccccc4)c4ccccc4)C(C)=C1C3(C)C)[C@]1(OC(C)=O)CO[C@@H]1C[C@@H]2O` [Paclitaxel]: the “cross-resistance of Docetaxel resistant cells” value in [1] is reported as “cross-resistance”.
